Several values for one entry are separate records, joined by “and”; a condition that tells them apart may be missing. Identical values can stand only once.
Conditions: 307.15 K, Fluid (supercritical or subcritical phases); for viscosity: vibrating wire; for mass density: Buoyancy - hydrostatic balance with magnetic suspension - one sinker

CC [ethane]
Conditions | mass density | viscosity
5348.1 kPa | – | 0.03109 mPa·s
5348.3 kPa | 282.116 kg/m3 | 0.03109 mPa·s
5348.5 kPa | 282.128 kg/m3 | 0.0311 mPa·s
5348.6 kPa | 282.136 kg/m3 | 0.0311 mPa·s
5367.9 kPa | 283.622 kg/m3 | 0.0314 mPa·s
5368.5 kPa | 283.666 kg/m3 | 0.0314 mPa·s
5369.1 kPa | 283.708 kg/m3 | 0.03144 mPa·s
5369.4 kPa | 283.73 kg/m3 | 0.03141 mPa·s
5648.1 kPa | 299.179 kg/m3 | 0.03389 mPa·s
5648.3 kPa | 299.189 kg/m3 | 0.03388 mPa·s
5648.7 kPa | 299.204 kg/m3 | 0.03392 mPa·s
5648.8 kPa | 299.208 kg/m3 | 0.03391 mPa·s
5673.9 kPa | 300.263 kg/m3 and 300.265 kg/m3 | 0.0342 mPa·s and 0.03418 mPa·s
5674 kPa | 300.27 kg/m3 | 0.03416 mPa·s
5674.2 kPa | 300.276 kg/m3 | 0.03417 mPa·s
6326.2 kPa | 319.788 kg/m3 | 0.03773 mPa·s
6328.2 kPa | 319.833 kg/m3 | 0.03774 mPa·s
6328.5 kPa | 319.84 kg/m3 | 0.03772 mPa·s
6328.9 kPa | 319.85 kg/m3 | 0.03776 mPa·s
6343.9 kPa | 320.187 kg/m3 | 0.03781 mPa·s
6344.7 kPa | 320.206 kg/m3 | 0.03783 mPa·s
6346 kPa | 320.235 kg/m3 | 0.03784 mPa·s
6347.2 kPa | 320.26 kg/m3 | 0.03783 mPa·s
7598.2 kPa | 341.1 kg/m3 | 0.04226 mPa·s
7602.2 kPa | 341.152 kg/m3 | 0.0423 mPa·s
7603 kPa | 341.162 kg/m3 | 0.0423 mPa·s
7700.1 kPa | 342.393 kg/m3 | 0.04256 mPa·s
7700.8 kPa | 342.402 kg/m3 | 0.04257 mPa·s
7701.7 kPa | 342.413 kg/m3 | 0.04257 mPa·s
9627.4 kPa | 361.481 kg/m3 | 0.04726 mPa·s
9628.1 kPa | 361.486 kg/m3 | 0.04728 mPa·s
9703.1 kPa | 362.086 kg/m3 | 0.04743 mPa·s
9703.6 kPa | 362.09 kg/m3 | 0.04742 mPa·s
9705 kPa | 362.101 kg/m3 | 0.04738 mPa·s
12507 kPa | 380.383 kg/m3 | 0.05257 mPa·s
12508 kPa | 380.388 kg/m3 | 0.05257 mPa·s
12509 kPa | 380.392 kg/m3 | 0.05255 mPa·s
12544 kPa | 380.585 kg/m3 | 0.05276 mPa·s
12545 kPa | 380.588 kg/m3 | 0.05268 mPa·s
12549 kPa | 380.613 kg/m3 | 0.05262 mPa·s
12554 kPa | 380.638 kg/m3 | 0.05258 mPa·s and 0.0526 mPa·s
12558 kPa | 380.661 kg/m3 | 0.05263 mPa·s
12559 kPa | 380.663 kg/m3 | 0.05263 mPa·s
15941 kPa | 396.414 kg/m3 | 0.05768 mPa·s
15981 kPa | 396.579 kg/m3 | 0.05768 mPa·s
15985 kPa | 396.595 kg/m3 | 0.05765 mPa·s
15986 kPa | 396.599 kg/m3 | 0.05767 mPa·s
15987 kPa | 396.601 kg/m3 | 0.05769 mPa·s
16874 kPa | 400.063 kg/m3 and 400.065 kg/m3 | 0.05888 mPa·s and 0.05882 mPa·s
16875 kPa | 400.066 kg/m3 and 400.067 kg/m3 and 400.068 kg/m3 | 0.05887 mPa·s [middle of 4 runs]
16876 kPa | 400.071 kg/m3 and 400.073 kg/m3 | 0.05885 mPa·s
16877 kPa | 400.075 kg/m3 | 0.05884 mPa·s
19746 kPa | 410.021 kg/m3 and 410.023 kg/m3 | 0.06238 mPa·s and 0.06241 mPa·s
19749 kPa | 410.03 kg/m3 | 0.06236 mPa·s
19750 kPa | 410.034 kg/m3 | 0.06242 mPa·s
19751 kPa | 410.039 kg/m3 | 0.0624 mPa·s
23209 kPa | 420.154 kg/m3 | 0.06633 mPa·s
23210 kPa | 420.157 kg/m3 and 420.156 kg/m3 | 0.06633 mPa·s and 0.0663 mPa·s and 0.06634 mPa·s
24530 kPa | 423.617 kg/m3 and 423.615 kg/m3 | 0.06776 mPa·s and 0.06778 mPa·s and 0.06781 mPa·s
24531 kPa | 423.619 kg/m3 | 0.06774 mPa·s and 0.06775 mPa·s
25875 kPa | 426.955 kg/m3 | 0.06913 mPa·s
25877 kPa | 426.961 kg/m3 | 0.06914 mPa·s
25879 kPa | 426.966 kg/m3 | 0.06906 mPa·s
25881 kPa | 426.969 kg/m3 | 0.06911 mPa·s
29053 kPa | 434.215 kg/m3 | 0.07235 mPa·s
29057 kPa | 434.225 kg/m3 | 0.07232 mPa·s
29063 kPa | 434.238 kg/m3 | –
